Patent US9302999B2, “Substituted triazoles as herbicides” (E. I. DU PONT DE NEMOURS AND COMPANY, priority 2012, dated 2016)

How the values were obtained:
Type in all cases: in vivo
[1] = test system: barnyardgrass (Echinochloa crus-galli); test: Test A pre-/postemergence: barnyardgrass; conditions: for Barnyardgrass plant response rating: Postemergence; for Plant response rating, Barnyardgrass: Preemergence
Procedure, shortened: (§1)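 Injury was scored visually on a 0 (no effect) to 100 (complete control) scale versus untreated controls roughly ten days after treatment in the greenhouse. Compounds, formulated in surfactant-containing non-phytotoxic solvent, went on as soil-directed preemergence spray or postemergence to one- to two-leaf plants 2–10 cm tall.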

[2] = test system: crabgrass, large (large crabgrass, Digitaria sanguinalis); test: Test A pre-/postemergence: crabgrass, large; conditions: for Crabgrass, Large plant response rating: Postemergence; for Plant response rating, Crabgrass, Large: Preemergence
Procedure, shortened: as §1

[3] = test system: foxtail, giant (giant foxtail, Setaria faberii); test: Test A pre-/postemergence: foxtail, giant; conditions: for Foxtail, Giant plant response rating: Postemergence; for Plant response rating, Foxtail, Giant: Preemergence
Procedure, shortened: as §1

[4] = test system: morningglory (Ipomoea spp.); test: Test A pre-/postemergence: morningglory; conditions: for Morningglory plant response rating: Postemergence; for Plant response rating, Morningglory: Preemergence
Procedure, shortened: as §1

[5] = test system: pigweed (Amaranthus retroflexus); test: Test A pre-/postemergence: pigweed; conditions: for Pigweed plant response rating: Postemergence; for Plant response rating, Pigweed: Preemergence
Procedure, shortened: as §1

[6] = test system: velvetleaf (Abutilon theophrasti); test: Test A pre-/postemergence: velvetleaf; conditions: for Velvetleaf plant response rating: Postemergence; for Plant response rating, Velvetleaf: Preemergence
Procedure, shortened: as §1

[7] = test system: wheat (Triticum aestivum); test: Test A pre-/postemergence: wheat; conditions: for Wheat plant response rating: Postemergence; for Plant response rating, Wheat: Preemergence
Procedure, shortened: as §1

[8] = test system: corn (Zea mays); test: Test A pre-/postemergence: corn; conditions: for Corn plant response rating: Postemergence; for Plant response rating, Corn: Preemergence
Procedure, shortened: as §1

[9] = test system: rice (Oryza sativa); test: Test C flooded paddy test: rice; conditions: scale 0 to 100 (0 no effect, 100 complete control)
Procedure, shortened: (§2)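 Plants at 2-leaf stage in pots flooded 3 cm above soil; compounds applied directly into the paddy water, depth maintained. Visual rating against controls after 13–15 days in greenhouse, scale 0 (no effect) to 100 (complete control).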

[10] = test system: sedge, umbrella (small-flower umbrella sedge, Cyperus difformis); test: Test C flooded paddy test: sedge, umbrella; conditions: scale 0 to 100 (0 no effect, 100 complete control)
Text: Plant species in the flooded paddy test consisted of rice (Oryza sativa), sedge, umbrella (small-flower umbrella sedge, Cyperus difformis), ducksalad (Heteranthera limosa) and barnyardgrass (Echinochloa crus-galli) grown to the 2-leaf stage for testing. At time of treatment, test pots were flooded to 3 cm above the soil surface, treated by application of test compounds directly to the paddy water, and then maintained at that water depth for the duration of the test.
Treated plants and controls were maintained in a greenhouse for 13 to 15 days, after which time all species were compared to controls and visually evaluated. Plant response ratings, summarized in Table C, are based on a scale of 0 to 100 where 0 is no effect and 100 is complete control. A dash (-) response means no test result.

[11] = test system: ducksalad (Heteranthera limosa); test: Test C flooded paddy test: ducksalad; conditions: scale 0 to 100 (0 no effect, 100 complete control)
Procedure, shortened: as §2

[12] = test system: barnyardgrass (Echinochloa crus-galli); test: Test C flooded paddy test: barnyardgrass; conditions: scale 0 to 100 (0 no effect, 100 complete control)
Procedure, shortened: as §2

[13] = 125 g ai/ha, 0 to 100 scale, 0 is no effect, 100 is complete control
[14] = 500 g ai/ha, visual rating on 0 to 100 scale (0 no effect, 100 complete control), approximately ten days
[15] = 125 g ai/ha, 0 to 100 scale (0 no effect, 100 complete control)
[16] = 500 g ai/ha, 0 to 100 scale, 0 is no effect, 100 is complete control
[17] = Flood (flooded paddy test), 62 g ai/ha, visual rating after 13 to 15 days
[18] = Flood (flooded paddy test), 250 g ai/ha, visual rating after 13 to 15 days
[19] = Flood (flooded paddy test), 125 g ai/ha, visual rating after 13 to 15 days

Cc1nn(-c2ccc(C(F)(F)F)cc2)nc1Cn1c(Cl)nc(C(F)(F)F)c1Cl [Compound 11]
Barnyardgrass plant response rating [1, 13]: 0
Barnyardgrass plant response rating [1, 14]: 0
Plant response rating, Barnyardgrass [1, 15]: 0
Plant response rating, Barnyardgrass [1, 16]: 0
Crabgrass, Large plant response rating [2, 13]: 0
Crabgrass, Large plant response rating [2, 14]: 0
Plant response rating, Crabgrass, Large [2, 15]: 0
Plant response rating, Crabgrass, Large [2, 16]: 0
Foxtail, Giant plant response rating [3, 13]: 0
Foxtail, Giant plant response rating [3, 14]: 0
Plant response rating, Foxtail, Giant [3, 15]: 0
Plant response rating, Foxtail, Giant [3, 16]: 0
Morningglory plant response rating [4, 13]: 0
Morningglory plant response rating [4, 14]: 0
Plant response rating, Morningglory [4, 15]: 0
Plant response rating, Morningglory [4, 16]: 0
Pigweed plant response rating [5, 13]: 0
Pigweed plant response rating [5, 14]: 20
Plant response rating, Pigweed [5, 15]: 0
Plant response rating, Pigweed [5, 16]: 0
Velvetleaf plant response rating [6, 13]: 0
Velvetleaf plant response rating [6, 14]: 0
Plant response rating, Velvetleaf [6, 15]: 0
Plant response rating, Velvetleaf [6, 16]: 0
Wheat plant response rating [7, 13]: 0
Wheat plant response rating [7, 14]: 0
Plant response rating, Wheat [7, 15]: 0
Plant response rating, Wheat [7, 16]: 0
Corn plant response rating [8, 13]: 0
Corn plant response rating [8, 14]: 0
Plant response rating, Corn [8, 15]: 0
Plant response rating, Corn [8, 16]: 0
Plant response rating, Rice [9, 17]: 0
Plant response rating, Rice [9, 18]: 0
Plant response rating, Sedge, Umbrella [10, 17]: 0
Plant response rating, Sedge, Umbrella [10, 18]: 0
Plant response rating, Ducksalad [11, 17]: 0
Plant response rating, Ducksalad [11, 18]: 0
Plant response rating, Barnyardgrass [12, 17]: 0
Plant response rating, Barnyardgrass [12, 18]: 0

Cc1nn(-c2ccc(C(F)(F)F)cc2)nc1Cn1cnc(C(F)(F)F)c1Cl [Compound 13]
Barnyardgrass plant response rating [1, 13]: 0
Barnyardgrass plant response rating [1, 14]: 0
Plant response rating, Barnyardgrass [1, 15]: 0
Plant response rating, Barnyardgrass [1, 16]: 0
Crabgrass, Large plant response rating [2, 13]: 0
Crabgrass, Large plant response rating [2, 14]: 0
Plant response rating, Crabgrass, Large [2, 15]: 0
Plant response rating, Crabgrass, Large [2, 16]: 0
Foxtail, Giant plant response rating [3, 13]: 0
Foxtail, Giant plant response rating [3, 14]: 10
Plant response rating, Foxtail, Giant [3, 15]: 0
Plant response rating, Foxtail, Giant [3, 16]: 0
Morningglory plant response rating [4, 13]: 10
Morningglory plant response rating [4, 14]: 10
Plant response rating, Morningglory [4, 15]: 0
Plant response rating, Morningglory [4, 16]: 0
Pigweed plant response rating [5, 13]: 0
Pigweed plant response rating [5, 14]: 0
Plant response rating, Pigweed [5, 15]: 0
Plant response rating, Pigweed [5, 16]: 0
Velvetleaf plant response rating [6, 13]: 0
Velvetleaf plant response rating [6, 14]: 0
Plant response rating, Velvetleaf [6, 15]: 0
Plant response rating, Velvetleaf [6, 16]: 0
Wheat plant response rating [7, 13]: 0
Wheat plant response rating [7, 14]: 0
Plant response rating, Wheat [7, 15]: 0
Plant response rating, Wheat [7, 16]: 0
Corn plant response rating [8, 13]: 0
Corn plant response rating [8, 14]: 0
Plant response rating, Corn [8, 15]: 0
Plant response rating, Corn [8, 16]: 0
Plant response rating, Rice [9, 17]: 0
Plant response rating, Rice [9, 18]: 0
Plant response rating, Sedge, Umbrella [10, 17]: 0
Plant response rating, Sedge, Umbrella [10, 18]: 0
Plant response rating, Ducksalad [11, 17]: 0
Plant response rating, Ducksalad [11, 18]: 0
Plant response rating, Barnyardgrass [12, 17]: 0
Plant response rating, Barnyardgrass [12, 18]: 0

COc1nn(-c2ccc(C(F)(F)F)cc2)nc1Cn1cnc(C(F)(F)F)n1 [Compound 18]
Barnyardgrass plant response rating [1, 13]: 50
Barnyardgrass plant response rating [1, 14]: 60
Plant response rating, Barnyardgrass [1, 15]: 20
Plant response rating, Barnyardgrass [1, 16]: 30
Crabgrass, Large plant response rating [2, 13]: 60
Crabgrass, Large plant response rating [2, 14]: 80
Plant response rating, Crabgrass, Large [2, 15]: 90
Plant response rating, Crabgrass, Large [2, 16]: 90
Foxtail, Giant plant response rating [3, 13]: 30
Foxtail, Giant plant response rating [3, 14]: 70
Plant response rating, Foxtail, Giant [3, 15]: 80
Plant response rating, Foxtail, Giant [3, 16]: 90
Morningglory plant response rating [4, 13]: 80
Morningglory plant response rating [4, 14]: 90
Plant response rating, Morningglory [4, 15]: 10
Plant response rating, Morningglory [4, 16]: 50
Pigweed plant response rating [5, 13]: 100
Pigweed plant response rating [5, 14]: 100
Plant response rating, Pigweed [5, 15]: 80
Plant response rating, Pigweed [5, 16]: 100
Velvetleaf plant response rating [6, 13]: 70
Velvetleaf plant response rating [6, 14]: 80
Plant response rating, Velvetleaf [6, 15]: 20
Plant response rating, Velvetleaf [6, 16]: 30
Wheat plant response rating [7, 13]: 20
Wheat plant response rating [7, 14]: 30
Plant response rating, Wheat [7, 15]: 0
Plant response rating, Wheat [7, 16]: 0
Corn plant response rating [8, 13]: 20
Corn plant response rating [8, 14]: 30
Plant response rating, Corn [8, 15]: 0
Plant response rating, Corn [8, 16]: 0
Plant response rating, Rice [9, 17]: 0
Plant response rating, Rice [9, 19]: 0
Plant response rating, Rice [9, 18]: 0
Plant response rating, Rice ([9]; Flood, 31 g ai/ha): 0
Plant response rating, Sedge, Umbrella [10, 17]: 0
Plant response rating, Sedge, Umbrella [10, 19]: 40
Plant response rating, Sedge, Umbrella [10, 18]: 65
Plant response rating, Sedge, Umbrella ([10]; Flood, 31 g ai/ha): 0
Plant response rating, Ducksalad [11, 17]: 0
Plant response rating, Ducksalad [11, 19]: 0
Plant response rating, Ducksalad [11, 18]: 0
Plant response rating, Ducksalad ([11]; Flood, 31 g ai/ha): 0
Plant response rating, Barnyardgrass [12, 17]: 0
Plant response rating, Barnyardgrass [12, 19]: 0
Plant response rating, Barnyardgrass [12, 18]: 0
Plant response rating, Barnyardgrass ([12]; Flood, 31 g ai/ha): 0

Cc1nn(-c2ccc(F)cc2)nc1Cn1c(Cl)nc(C(F)(F)F)c1Cl [Compound 20]
Barnyardgrass plant response rating [1, 13]: 0
Barnyardgrass plant response rating [1, 14]: 0
Plant response rating, Barnyardgrass [1, 15]: 0
Plant response rating, Barnyardgrass [1, 16]: 0
Crabgrass, Large plant response rating [2, 13]: 0
Crabgrass, Large plant response rating [2, 14]: 10
Plant response rating, Crabgrass, Large [2, 15]: 0
Plant response rating, Crabgrass, Large [2, 16]: 0
Foxtail, Giant plant response rating [3, 13]: 0
Foxtail, Giant plant response rating [3, 14]: 10
Plant response rating, Foxtail, Giant [3, 15]: 0
Plant response rating, Foxtail, Giant [3, 16]: 0
Morningglory plant response rating [4, 13]: 0
Morningglory plant response rating [4, 14]: 10
Plant response rating, Morningglory [4, 15]: 0
Plant response rating, Morningglory [4, 16]: 0
Pigweed plant response rating [5, 13]: 0
Pigweed plant response rating [5, 14]: 30
Plant response rating, Pigweed [5, 15]: 0
Plant response rating, Pigweed [5, 16]: 0
Velvetleaf plant response rating [6, 13]: 0
Velvetleaf plant response rating [6, 14]: 20
Plant response rating, Velvetleaf [6, 15]: 0
Plant response rating, Velvetleaf [6, 16]: 0
Wheat plant response rating [7, 13]: 0
Wheat plant response rating [7, 14]: 0
Plant response rating, Wheat [7, 15]: 0
Plant response rating, Wheat [7, 16]: 0
Corn plant response rating [8, 13]: 0
Corn plant response rating [8, 14]: 10
Plant response rating, Corn [8, 15]: 0
Plant response rating, Corn [8, 16]: 0
Plant response rating, Rice [9, 17]: 0
Plant response rating, Rice [9, 19]: 0
Plant response rating, Rice [9, 18]: 0
Plant response rating, Rice ([9]; Flood, 31 g ai/ha): 0
Plant response rating, Sedge, Umbrella [10, 17]: 0
Plant response rating, Sedge, Umbrella [10, 19]: 0
Plant response rating, Sedge, Umbrella [10, 18]: 0
Plant response rating, Sedge, Umbrella ([10]; Flood, 31 g ai/ha): 0
Plant response rating, Ducksalad [11, 17]: 0
Plant response rating, Ducksalad [11, 19]: 0
Plant response rating, Ducksalad [11, 18]: 0
Plant response rating, Ducksalad ([11]; Flood, 31 g ai/ha): 0
Plant response rating, Barnyardgrass [12, 17]: 0
Plant response rating, Barnyardgrass [12, 19]: 0
Plant response rating, Barnyardgrass [12, 18]: 0
Plant response rating, Barnyardgrass ([12]; Flood, 31 g ai/ha): 0
